Marks after values point to notes of the source that are not given here.
Assays:
[1] = system: male C57bl/6J mice fed very high-fat diet (diet induced diabetes); experiment: Blood glucose levels in food restricted high-fat-diet (diabetic) C57BL/6J mice after gavage, vehicle 66% LABRASOL; assay type: in vivo, mouse; conditions: for Hypoglycemic activity (in words): 300 mg/kg; for % decrease from 0 h / Blood glucose, 6 hours: 6 hours
Description: The C57B6 mouse strain becomes diabetic when maintained on a high fat diet, it therefore serves as a model for Type 2 diabetes. A screen for treatments effective against diet induced diabetes utilizes male C57BL/6J mice (4-5 week old, 19-20 g) fed a high-fat diet (60% fat in kcal) for 10-16 weeks. This diet induces obesity and diabetes in this mouse strain. Extracts that induce a 20-40% decline in the blood glucose level are used for further testing.
Five-week-old male C57bl/6J mice were purchased from Jackson Labs (Maine) and were acclimatized for 1 week before being randomly assigned into the experimental groups. The animals were housed four to a cage with free access to water in a room with a 12:12 hour light-dark cycle (7:00 AM-7:00 PM), a temperature of 24±1° C., and the animals were weighed weekly. During the acclimatization period, each animal was fed a regular diet ad libitum. At 6-weeks old, the mice were randomly divided into two groups: low fat or very high fat fed groups. The mice continued to receive either a low fat diet (LFD) or very high-fat diet (VHFD) for a 12-week period. The high-fat diet food was purchased from Research Diets Inc., and the nutrition content of very high-fat diet food was similar to that of the low fat diet food except that carbohydrates were lower (70 kcal % vs. 20 kcal %) and the addition of more lard (10 kcal % vs. 60 kcal %) in the diet. Body weights were measured weekly, and at every other week blood was collected for blood glucose analysis. […] Animals fed with LFD were also fasted for 4 hours. […] As a positive control, metformin (Fortamet®, Gluocphase®, Glumetza®, Romet®) was administered instead of plant extract at a dose of 300 mg/kg (MET300). […] Without being limited by theory, metformin may act by increasing insulin sensitivity via increasing the utilization of glucose. The experimental protocols were approved by Rutgers University Institutional Care and Use Committee and followed federal, and state laws.
All treatments were provided by gavage with a vehicle of 66% LABRASOL®, a lipid-based self-emulsifying excipient. Abbreviations for Table 1 are as follows: FC=crude extract, F2=anthocyanin enriched extract, FT=treated extract to promote chalcone formation, metformin is a drug used as a positive control. The results were as follows:
All treatments were provided by gavage with a vehicle of 66% LABRASOL®. Abbreviations for Table 2 are as follows: FC=crude extract, F2=anthocyanin-enriched extract, FT=treated extract to promote chalcone formation, metformin is a drug used as a positive control; *:p<0.05; **:p<0.01; ***:p<0.001 vs 0 hours; c:p<0.05; cc:p<0.01; ccc:p<0.001 vs LABRASOL®. The results were as follows:
All treatments were provided by gavage with a vehicle of 66% LABRASOL®. Abbreviations for Table 3 are as follows: FT=treated extract to promote chalcone formation, F2=anthocyanin enriched extract, MBCE=maqui berry crude extract, MBA=maqui berry anthocyanin-rich extract, metformin is a drug used as a positive control; *:p<0.05; **:p<0.01; ***:p<0.001 vs. 0 hours; c:p<0.05; cc:p<0.01; ccc:p<0.001 vs. LABRASOL®.
The hypoglycemic effects of delphinidin-3-glucoside (Dp 3-glc) and malvidin-3-glucoside (Mv-3-glc) relative to blueberry anthocyanin-enriched extracts and metformin in insulin resistant C57bl/6J mice were investigated. Malvidin glycosides are the predominant anthocyanins of the lowbush blueberry extracts. Delphinidin-3-glucoside likely is a major component of the blueberry extracts. It is reported to be the active hypoglycemic compound from the leaves of Vaccinium species. The animals were maintained on a high fat diet and food restricted 4 hours prior to treatment by gavage. The extracts and metformin were formulated with 66% Labrasol as the delivery vehicle

[2] = system: food restricted C57B6 mice; experiment: Blood glucose levels in food restricted C57B6 mice using water as the gavage vehicle; assay type: in vivo, mouse; conditions: Table 5, 300 mg/kg gavage
Method: Five-week-old male C57bl/6J mice were purchased from Jackson Labs (Maine) and were acclimatized for 1 week before being randomly assigned into the experimental groups. The animals were housed four to a cage with free access to water in a room with a 12:12 hour light-dark cycle (7:00 AM-7:00 PM), a temperature of 24±1° C., and the animals were weighed weekly. During the acclimatization period, each animal was fed a regular diet ad libitum. At 6-weeks old, the mice were randomly divided into two groups: low fat or very high fat fed groups. The mice continued to receive either a low fat diet (LFD) or very high-fat diet (VHFD) for a 12-week period. The high-fat diet food was purchased from Research Diets Inc., and the nutrition content of very high-fat diet food was similar to that of the low fat diet food except that carbohydrates were lower (70 kcal % vs. 20 kcal %) and the addition of more lard (10 kcal % vs. 60 kcal %) in the diet. Body weights were measured weekly, and at every other week blood was collected for blood glucose analysis. Animals fed with VHFD were fasted for 4 hours and fed orally (gavage) with plant extracts (500 mg/kg) or […] to test efficacy of plant extracts. Animals fed with LFD were also fasted for 4 hours. Blood glucose readings are made 0 hours, 3 hours, and 6 hours after treatment (animals were fasted during the testing period). As a positive control, metformin (Fortamet®, Gluocphase®, Glumetza®, Romet®) was administered instead of plant extract at a dose of 300 mg/kg (MET300). […] Without being limited by theory, metformin may act by increasing insulin sensitivity via increasing the utilization of glucose. The experimental protocols were approved by Rutgers University Institutional Care and Use Committee and followed federal, and state laws.
The MBA was active at both 500 mg/kg and 250 mg/kg. Therefore, the use of Labrasol as a bioenhancing agent dose was not necessary with the MBA. A robust response was seen when Labrasol was not included in the dosing vehicle.

[3] = Example 3, 300 mg/kg by gavage with Labrasol, insulin resistant C57bl/6J mice
[4] = Table 4, insulin resistant C57bl/6J mice, 300 mg/kg gavage in 66% Labrasol
[5] = Table 2, 300 mg/kg gavage in 66% LABRASOL
[6] = Table 3, 250 mg/kg gavage in 66% LABRASOL

OC[C@H]1O[C@@H](Oc2cc3c(O)cc(O)cc3[o+]c2-c2cc(O)c(O)c(O)c2)[C@H](O)[C@@H](O)[C@@H]1O [Dp 3-glc, delphinidin-3-glucoside]
Hypoglycemic activity (in words) [1, 3]: did not significantly show hypoglycemic activity
Hypoglycemic activity (in words) ([1]; Example 3, 300 mg/kg by gavage with Labrasol, insulin resistant C57bl/6J mice, listed as delphinidin-3-O-glucoside): did not have significant hypoglycemic activity
Blood glucose, 0 hours [1, 4]: 214 ± 7.4
% decrease from 0 h [1, 4]: −17 ± 5.7%
Blood glucose, 6 hours [1, 4]: 186.6 ± 15.5

CN(C)C(=N)N=C(N)N [Metformin, metformin]
Blood glucose, 0 hours ([1]; Table 1, 300 mg/kg gavage in 66% LABRASOL): 226 ± 18
Blood glucose, 2 hours ([1]; Table 1, 300 mg/kg gavage in 66% LABRASOL, 2 hours): 183 ± 25
Blood glucose, 4 hours ([1]; Table 1, 300 mg/kg gavage in 66% LABRASOL, 4 hours): 165 ± 29
% decrease from 0 hours ([1]; Table 1, 300 mg/kg gavage in 66% LABRASOL, last time point 4 hours): −27%
Blood glucose, 0 hours [1, 5]: 207 ± 18
Blood glucose, 3 hours [1, 5]: 211 ± 15
Blood glucose, 5 hours ([1]; Table 2, 300 mg/kg gavage in 66% LABRASOL, 5 hours): 128 ± 17**^cc
% decrease from 0 hours ([1]; Table 2, 300 mg/kg gavage in 66% LABRASOL, last time point 5 hours): −38%
Blood glucose, 0 hours [1, 6]: 249 ± 29
Blood glucose, 3 hours [1, 6]: 273 ± 32
Blood glucose, 6 hours [1, 6]: 214 ± 39
% decrease from 0 hours ([1]; Table 3, 250 mg/kg gavage in 66% LABRASOL, last time point 6 hours): −14%
Blood glucose, 0 hours [1, 4]: 206.7 ± 11
% decrease from 0 h [1, 4]: −49 ± 4.5%
Blood glucose, 6 hours [1, 4]: 108 ± 8.9
Blood glucose, 0 hours ([2]; 0 hours): 189 ± 11.1
% decrease from 0 hours ([2]; 6 hours): −43.4 ± 7.8%
Blood glucose, 6 hours ([2]; 6 hours): 106.8 ± 14.2

COc1cc(-c2[o+]c3cc(O)cc(O)c3cc2O[C@@H]2O[C@H](CO)[C@@H](O)[C@H](O)[C@H]2O)cc(OC)c1O [Mv-3-glc, malvidin-3-glucoside]
Lowered blood glucose levels by ([1]; Example 3, 300 mg/kg by gavage with Labrasol): 34%
Hypoglycemic activity (in words) [1, 3]: comparable to the hypoglycemic activity of the phenolics-rich extract at a dose of 500 mg/kg
Hypoglycemic activity (in words) ([1]; Example 3, 300 mg/kg by gavage with Labrasol, insulin resistant C57bl/6J mice, listed as malvidin glucoside): comparable to the metformin positive control at 300 mg/kg
Blood glucose, 0 hours [1, 4]: 204 ± 20.8
% decrease from 0 h [1, 4]: −31 ± 6.3%
Blood glucose, 6 hours [1, 4]: 134.4 ± 8.3

Source: patent US20090176718A1, “Berry Preparations For Treatment Of Diabetes And Metabolic Syndrome” (priority 2007, published 2009)
